Drawing on US20210024483A1, “HETEROCYLCOALKENYL DERIVATIVES USEFUL AS AGONISTS OF THE GPR120 AND / OR GPR40” (Janssen Pharmaceutica NV, priority 2018, published 2021), this text covers EC50 for one molecule.

In this assay the target is T1, Human GPR120 short form (short splice variant, NM_001195755.1) (Homo sapiens, UniProt Q5NUL3).
T1 construct: expressed in transfected cells; host or cells: HEK293
T1 sequence (Q5NUL3 1-361): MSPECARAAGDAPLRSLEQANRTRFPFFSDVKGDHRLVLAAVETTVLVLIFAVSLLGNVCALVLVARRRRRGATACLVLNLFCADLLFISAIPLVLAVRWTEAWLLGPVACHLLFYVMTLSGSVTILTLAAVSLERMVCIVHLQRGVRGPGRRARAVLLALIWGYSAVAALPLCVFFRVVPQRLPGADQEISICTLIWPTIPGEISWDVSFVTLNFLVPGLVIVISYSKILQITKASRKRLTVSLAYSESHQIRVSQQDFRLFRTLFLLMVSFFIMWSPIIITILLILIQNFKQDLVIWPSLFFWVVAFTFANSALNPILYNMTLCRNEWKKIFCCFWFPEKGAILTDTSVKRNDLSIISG
Nature of the assay: Human GPR120 Calcium Flux Assay. The note with it: HEK-293 cells, 4200 cells/well, read-out: Human GPR120 Calcium Flux Assay Procedure B EC50. The class given is cell-based. An outline of the steps: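 HEK293 cells stably expressing human GPR120 short form were starved 1 h and loaded with Fluo-4 NW dye with probenecid. Compound-induced calcium flux was read on FLIPR for 300 s, with the response taken as max minus min RFU. EC50 came from sigmoidal variable-slope fits.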

`Cc1c(CCC(=O)O)ccc(OCC2=C(c3ccc(Cl)cc3)COCC2)c1C` [ID No. 745, 3-[4-[[5-(4-chlorophenyl)-3,6-dihydro-2H-pyran-4-yl]methoxy]-2,3-dimethyl-phenyl]propanoic acid]: the EC50 was 0.11 µM.
